Measured values: US10363247B2, “(S,E)-3-(6-aminopyridin-3-yl)-N-((5-(4-(3-fluoro-3-methylpyrrolidine-1-carbonyl)phenyl-7-(4-fluorophenyl)benzofuran-2-yl)methyl)acrylamide for the treatment of cancer” (Karyopharm Therapeutics Inc., priority 2015, dated 2019)

Key:
MS751 cells = assay: MTT cell proliferation assay, MS751 cells; assay type: cell-based, human; settings: approximately 64-72 hours incubation
Experimental: (§1) The MTT cell proliferation assay was used to study the cytotoxic properties of the compounds. The assay was performed according to the method described by Roche Molecular Biochemicals, with minor modifications. The assay is based on the cleavage of the tetrazolium salt, MTT, in the presence of an electron-coupling reagent. The water-insoluble formazan salt produced must be solubilized in an additional step. Cells grown in a 96-well tissue culture plate were incubated with the MTT solution for approximately 4 hours. After this incubation period, a water-insoluble formazan dye formed. After solubilization, the formazan dye was quantitated using a scanning multi-well spectrophotometer (ELISA reader). […] The cells were seeded at 5,000-10,000 cells in each well of 96-well plate in 100 μL of fresh culture medium and were allowed to attach overnight. The stock solutions of the compounds were diluted in 100 μL cell culture medium to obtain eight concentrations of each test compound, ranging from 1 nM to 30 μM. […] All optical densities were measured at 490 nm using a Vmax Kinetic Microplate Reader (Molecular Devices). In most cases, the assay was performed in duplicate and the results were presented as a mean percent inhibition to the negative control±SE. The following formula was used to calculate the percent of inhibition: Inhibition (%)=(1-(ODo/OD))×100.
(§2) The compounds were tested against MS751, Z138 and 3T3 cells. The MS751 cell line is derived from a metastasis to lymph node of human cervix from a patient diagnosed with squameous cell carcinoma of the cervix. The Z138 cell line is a mature B-cell acute lymphoblastic leukemia cell line derived from a patient with chronic lymphocytic leukemia. 3T3 cells are standard fibroblast cells; they were originally isolated from Swiss mouse embryo tissue.

3T3 cells = assay: MTT cell proliferation assay, 3T3 cells; assay type: cell-based, mouse
Experimental: as §1, §2

Z138 cells = assay: MTT cell proliferation assay, Z138 cells; assay type: cell-based, human; settings: approximately 64-72 hours incubation
Experimental: as §1, §2

[1] = system: Molt-4 T-ALL cancer xenograft; NCI-H520 lung cancer xenograft; assay: Xenograft models in mice (Molt-4 T-ALL in SCID mice; NCI-H520 lung cancer in nu/nu mice); assay type: in vivo, mouse; settings: Molt-4 xenograft 10 and 20 mg/kg PO BID; H520 xenograft 100 mg/kg PO BID
Experimental: In this study, the impact of the compound of Example 2 on tumor growth was tested using the Molt-4 T-ALL cancer xenograft model in SCID mice. MOLT 4 (CRL-1582) acute lymphoblastic leukemia cells were obtained from ATCC. These cells were grown in RPMI-1640 medium supplemented with 10% fetal bovine serum, 1% penicillin and streptomycin. Cells were sub-cultured by transferring floating cells to a new flask and trypsinizing adherent cells before subculturing at a ratio of 1:4. Molt-4 cells were harvested by centrifugation and counted using a hemocytometer. Cells were resuspended in PBS at a 5×10^7 cells per mL. Cells were placed on ice and mixed with an equal volume of Matrigel (BD Biosciences CB-40234). This mixture was kept on ice and injected into the left flank of mice in a volume of […], equivalent to 5×10^6 cells per mouse. Twenty-four (24) CB-17 SCID mice were inoculated subcutaneously in the left flank Molt-4 cells. Treatment was initiated when the tumors reached a mean volume of ˜135 mm^3. […] Animal weights and conditions were recorded daily, and tumors were measured on Mondays, Wednesdays and Fridays.
In this study, the impact of the compound of Example 2 on tumor growth was tested using the NCI-H520 lung cancer xenograft model in nu/nu mice. […] Animal weights and conditions were recorded daily, and tumors were measured on Mondays, Wednesdays and Fridays.

Plasma protein binding = assay type: in vitro ADME; settings: human plasma
[2] = approximately 64-72 hours incubation
[3] = Homo sapiens, MS751, MS751 cells
[4] = Mus musculus, NIH3T3, approximately 64-72 hours incubation
[5] = Homo sapiens, Z-138, Z138 cells

Fraction of Bound (Plasma protein binding) [%] | SMILES | IC50 (MS751 cells; MS751 cells) [µM] | IC50 (3T3 cells; [2]) [µM] | IC50 (Z138 cells; Z138 cells) [µM] | IC50 (MS751 cells; [3]) [µM] | efficacy in vivo (tumor growth) [1] | IC50 (3T3 cells; [4]) [µM] | IC50 (Z138 cells; [5]) [µM]
– | CC1(F)CCN(C(=O)c2ccc(-c3cc(C(F)(F)F)c4oc(CNC(=O)/C=C/c5ccc(N)nc5)cc4c3)cc2)C1 (single isomer, unassigned) [Example X-4, (E)-3-(6-aminopyridin-3-yl)-N-((5-(4-(3-fluoro-3-methylpyrrolidine-1-carbonyl)phenyl)-7-(trifluoromethyl)benzofuran-2-yl)methyl)acrylamide] | 2.1 | > 10 | 1.5 | – | – | – | –
95.2 | C[C@]1(F)CCN(C(=O)c2ccc(-c3cc(-c4ccc(F)cc4)c4oc(CNC(=O)/C=C/c5ccc(N)nc5)cc4c3)cc2)C1 [Example 2, (S,E)-3-(6-aminopyridin-3-yl)-N-((5-(4-(3-fluoro-3-methylpyrrolidine-1-carbonyl)phenyl)-7-(4-fluorophenyl)benzofuran-2-yl)methyl)acrylamide] | – | – | – | 0.008 | demonstrated efficacy in vivo | 1.18 | < 0.005
– | CC1(F)CCN(C(=O)c2ccc(-c3cc(C(F)(F)F)c4oc(CNC(=O)/C=C/c5ccc(N)nc5)cc4c3)cc2)C1 (single isomer, unassigned) [Example X-2, (E)-3-(6-aminopyridin-3-yl)-N-((5-(4-(3-fluoro-3-methylpyrrolidine-1-carbonyl)phenyl)-7-(trifluoromethyl)benzofuran-2-yl)methyl)acrylamide] | 0.52 | > 10 | 0.24 | – | – | – | –
– | CC1(F)CCN(C(=O)c2ccc(-c3cc(-c4ccc(F)cc4)c4oc(CNC(=O)/C=C/c5ccc(N)nc5)cc4c3)cc2)C1 (racemic) [Example 1, (±)-(E)-3-(6-aminopyridin-3-yl)-N-((5-(4-(3-fluoro-3-methylpyrrolidine-1-carbonyl)phenyl)-7-(4-fluorophenyl)benzofuran-2-yl)methyl)acrylamide] | – | – | – | 0.03 | – | 1.26 | < 0.005
– | C[C@@]1(F)CCN(C(=O)c2ccc(-c3cc(-c4ccc(F)cc4)c4oc(CNC(=O)/C=C/c5ccc(N)nc5)cc4c3)cc2)C1 [Example 3, (R,E)-3-(6-aminopyridin-3-yl)-N-((5-(4-(3-fluoro-3-methylpyrrolidine-1-carbonyl)phenyl)-7-(4-fluorophenyl)benzofuran-2-yl)methyl)acrylamide] | – | – | – | 0.09 | – | > 10 | 0.02
100 | Nc1ccc(/C=C/C(=O)NCc2cc3cc(-c4ccc(C(=O)N5CCC(F)(F)CC5)cc4)cc(-c4ccc(F)cc4)c3o2)cn1 [Example X-1, (E)-3-(6-aminopyridin-3-yl)-N-((5-(4-(4,4-difluoropiperidine-1-carbonyl)phenyl)-7-(4-fluorophenyl)benzofuran-2-yl)methyl)acrylamide] | – | – | – | 0.05 | – | 3.6 | 0.018
– | CC1(F)CCN(C(=O)c2ccc(-c3cc(C(F)(F)F)c4oc(CNC(=O)/C=C/c5ccc(N)nc5)cc4c3)cc2)C1 (single isomer, unassigned) [Example X-3, (E)-3-(6-aminopyridin-3-yl)-N-((5-(4-(3-fluoro-3-methylpyrrolidine-1-carbonyl)phenyl)-7-(trifluoromethyl)benzofuran-2-yl)methyl)acrylamide] | 0.4 | – | 0.4 | – | – | > 10 | –
